In US8916567B2, “Certain crystalline hydrates, pharmaceutical compositions thereof and methods for preparation and use thereof” (Universal Technology Alliance, Inc., priority 2009, dated 2014):
Values after ≈ are worked out from the molar mass of the structure shown. Like-named read-outs stand apart in the source and are kept apart here.

What was measured:
Type in all cases: cell-based
[1] = test system: Staphylococcus aureus MRSA; assay: Minimum inhibitory concentration (MIC) in vitro, agar dilution method; conditions: for MIC: read-out: MIC
Excerpt: (§1) Hydrates Samples: • The 1/2 hydrates prepared according to Example 2; • Content (purity % wt): 99.0%; • The 1/12 hydrates prepared according to Example 253; • Content (purity % wt): 98.9%; • The 2/7 hydrates prepared according to Example 106; • Content (purity % wt): 98.8%; • The 2/5 hydrates prepared according to Example 162; • Content (purity % wt): 99.0%; • The 3/4 hydrates prepared according to Example 337; • Content (purity % wt): 98.8%; • Preparation: dissolved in DMSO, and further diluted with sterile distilled water to desired concentration. • The hydrates samples were supplied by Sichuan Beilike Biotechnology LTD.
(§2) Anhydrous Sample: • The anhydrous compounds prepared according to Example 1. • Content (purity % wt): 98.6%; • Preparation: dissolved in DMSO, and further diluted with sterile distilled water to desired concentration; • The anhydrous sample was supplied by Sichuan Beilike Biotechnology LTD.
(§3) Control Samples • Vancomycin: provided by Sichuan Beilike Biotechnology LTD, purchased from Eli Lilly Japan K.K. • Lot No.: WM16151 (production date: Apr. 10, 2007, expiration date: Apr. 9, 2009). • Specification: 500 mg/bottle; solubility (physicochemical properties): soluble in water. • Linezolid (LZ): provided by Sichuan Beilike Biotechnology LTD.
(§4) Bacteria Strains • Clinically isolated strains: clinically isolated bacterial pathogens collected in Sichuan and Beijing areas from March 2007 to May 2008. • Species include: Staphylococcus aureus MRSA, Staphylococcus aureus MSSA, S. epidermidis MRSE, S. epidermidis MSSE, E. feacalis, and E. feacium, a total of 51 strains. • Quality control strains: Staphylococcus aureus […] strain kept in Sichuan Industrial Institute of Antibiotics, purchased from the medical testing center of the Ministry of Health, China.
(§5) Experimental Method: • Measurement of the minimum inhibitory concentration (MIC) in vitro: • The minimum inhibitory concentration (MIC) of each test sample against test strains was measured by using the agar dilution method recommended by the U.S. National Committee for Clinical Laboratory Standards (CLSI/NCCIs).
(§6) Based on the CLSI/NCCL's testing standard with respect to vancomycin and linezolid (see Table 6), the minimum inhibitory concentration (MIC) values of every strain were reported, and the MIC50 (the concentration that inhibits 50% of the different strains of bacteria), MIC90 (the concentration that inhibits 90% of the different strains of bacteria), and MICrange (the range of the MIC value of the tested strains) were observed.

S. epidermidis MRSE = assay: as above; conditions: for MIC: read-out: MIC
Excerpt: as §1, §2, §3, §4, §5, §6

E. feacalis = assay: as above
Excerpt: as §1, §2, §3, §4, §5, §6

S. epidermidis MSSE = assay: as above; conditions: for MIC: read-out: MIC
Excerpt: as §1, §2, §3, §4, §5, §6

E. feacium = assay: as above
Excerpt: as §1, §2, §3, §4, §5, §6

[2] = test system: Staphylococcus aureus MSSA; assay: as above; conditions: for MIC: read-out: MIC
Excerpt: as §1, §2, §3, §4, §5, §6

Staphylococcus aureus = assay: Minimum inhibitory concentration (MIC) in vitro, agar dilution method, quality control strain; conditions: Staphylococcus aureus, ATCC27853, strain S. AT C C25923 (Table 7 No. 1); read-out: MIC
Excerpt: as §1, §2, §3, §4, §5, §6

## CC(=O)NC[C@H]1CN(c2ccc(N3CCOCC3)c(F)c2)C(=O)O1 [Linezolid, reference compound]
[1]; S. MRSA (10 strains), clinically isolated
  MICrange: 1 to 2 µg/mL
[1]; Staphylococcus aureus, MRSA, S. MRSA (10 strains), clinically isolated, read-out: MIC50
  MIC50: 2 µg/mL (≈ 5.93 µM)
[1]; Staphylococcus aureus, MRSA, S. MRSA (10 strains), clinically isolated, read-out: MIC90
  MIC90: 2 µg/mL (≈ 5.93 µM)
[1]; Staphylococcus aureus, MRSA, strain S. MRSA 29 (Table 7 No. 15)
  MIC: 1 µg/mL (≈ 2.96 µM)
[1]; Staphylococcus aureus, MRSA, strain S. MRSA 101 (Table 7 No. 14)
  MIC: 1 µg/mL (≈ 2.96 µM)
[1]; Staphylococcus aureus, MRSA, strain S. MRSA 201 (Table 7 No. 13)
  MIC: 2 µg/mL (≈ 5.93 µM)
[1]; Staphylococcus aureus, MRSA, strain S. MRSA B27 (Table 7 No. 21)
  MIC: 2 µg/mL (≈ 5.93 µM)
[1]; Staphylococcus aureus, MRSA, strain S. MRSA B105 (Table 7 No. 17)
  MIC: 2 µg/mL (≈ 5.93 µM)
[1]; Staphylococcus aureus, MRSA, strain S. MRSA B143 (Table 7 No. 19)
  MIC: 1 µg/mL (≈ 2.96 µM)
[1]; Staphylococcus aureus, MRSA, strain S. MRSA B151 (Table 7 No. 20)
  MIC: 2 µg/mL (≈ 5.93 µM)
[1]; Staphylococcus aureus, MRSA, strain S. MRSA B164 (Table 7 No. 16)
  MIC: 2 µg/mL (≈ 5.93 µM)
[1]; Staphylococcus aureus, MRSA, strain S. MRSA B199 (Table 7 No. 22)
  MIC: 2 µg/mL (≈ 5.93 µM)
[1]; Staphylococcus aureus, MRSA, strain S. MRSA B617 (Table 7 No. 18)
  MIC: 1 µg/mL (≈ 2.96 µM)
S. epidermidis MRSE; S. ep MRSE (10 strains), clinically isolated
  MICrange: 0.5 to 2 µg/mL
S. epidermidis MRSE; Staphylococcus epidermidis, MRSE, S. ep MRSE (10 strains), clinically isolated, read-out: MIC50
  MIC50: 1 µg/mL (≈ 2.96 µM)
S. epidermidis MRSE; Staphylococcus epidermidis, MRSE, S. ep MRSE (10 strains), clinically isolated, read-out: MIC90
  MIC90: 2 µg/mL (≈ 5.93 µM)
S. epidermidis MRSE; Staphylococcus epidermidis, MRSE, strain S. ep MRSE4 (Table 8 No. 9)
  MIC: 1 µg/mL (≈ 2.96 µM)
S. epidermidis MRSE; Staphylococcus epidermidis, MRSE, strain S. ep MRSE20 (Table 8 No. 6)
  MIC: 1 µg/mL (≈ 2.96 µM)
S. epidermidis MRSE; Staphylococcus epidermidis, MRSE, strain S. ep MRSE87 (Table 8 No. 13)
  MIC: 2 µg/mL (≈ 5.93 µM)
S. epidermidis MRSE; Staphylococcus epidermidis, MRSE, strain S. ep MRSE90 (Table 8 No. 10)
  MIC: 2 µg/mL (≈ 5.93 µM)
S. epidermidis MRSE; Staphylococcus epidermidis, MRSE, strain S. ep MRSE101 (Table 8 No. 7)
  MIC: 0.5 µg/mL (≈ 1.48 µM)
S. epidermidis MRSE; Staphylococcus epidermidis, MRSE, strain S. ep MRSE105 (Table 8 No. 11)
  MIC: 1 µg/mL (≈ 2.96 µM)
S. epidermidis MRSE; Staphylococcus epidermidis, MRSE, strain S. ep MRSE140 (Table 8 No. 14)
  MIC: 1 µg/mL (≈ 2.96 µM)
S. epidermidis MRSE; Staphylococcus epidermidis, MRSE, strain S. ep MRSE142 (Table 8 No. 12)
  MIC: 1 µg/mL (≈ 2.96 µM)
S. epidermidis MRSE; Staphylococcus epidermidis, MRSE, strain S. ep MRSE210 (Table 8 No. 15)
  MIC: 1 µg/mL (≈ 2.96 µM)
S. epidermidis MRSE; Staphylococcus epidermidis, MRSE, strain S. ep MRSE211 (Table 8 No. 8)
  MIC: 1 µg/mL (≈ 2.96 µM)
E. feacalis
  MIC50: 1 µg/mL (≈ 2.96 µM)
  MIC90: 2 µg/mL (≈ 5.93 µM)
E. feacalis; E. feacalis (5 strains), clinically isolated
  MICrange: 1 to 2 µg/mL
E. feacalis; strain Efa 54 (Table 8 No. 20)
  MIC: 1 µg/mL (≈ 2.96 µM)
E. feacalis; strain Efa 116 (Table 8 No. 16)
  MIC: 1 µg/mL (≈ 2.96 µM)
E. feacalis; strain Efa 907 (Table 8 No. 19)
  MIC: 1 µg/mL (≈ 2.96 µM)
E. feacalis; strain Efa 3006 (Table 8 No. 18)
  MIC: 1 µg/mL (≈ 2.96 µM)
E. feacalis; strain Efa 33748 (Table 8 No. 17)
  MIC: 2 µg/mL (≈ 5.93 µM)
S. epidermidis MSSE; S. ep MSSE (10 strains), clinically isolated
  MICrange: 0.5 to 2 µg/mL
S. epidermidis MSSE; Staphylococcus epidermidis, S. ep MSSE (10 strains), clinically isolated, read-out: MIC50
  MIC50: 1 µg/mL (≈ 2.96 µM)
S. epidermidis MSSE; Staphylococcus epidermidis, S. ep MSSE (10 strains), clinically isolated, read-out: MIC90
  MIC90: 2 µg/mL (≈ 5.93 µM)
S. epidermidis MSSE; Staphylococcus epidermidis, strain S. ep MSSE87 (Table 7 No. 23)
  MIC: 0.5 µg/mL (≈ 1.48 µM)
S. epidermidis MSSE; Staphylococcus epidermidis, strain S. ep MSSE88 (Table 8 No. 5)
  MIC: 2 µg/mL (≈ 5.93 µM)
S. epidermidis MSSE; Staphylococcus epidermidis, strain S. ep MSSE113 (Table 7 No. 24)
  MIC: 1 µg/mL (≈ 2.96 µM)
S. epidermidis MSSE; Staphylococcus epidermidis, strain S. ep MSSE116 (Table 7 No. 25)
  MIC: 0.5 µg/mL (≈ 1.48 µM)
S. epidermidis MSSE; Staphylococcus epidermidis, strain S. ep MSSE118 (Table 8 No. 2)
  MIC: 2 µg/mL (≈ 5.93 µM)
S. epidermidis MSSE; Staphylococcus epidermidis, strain S. ep MSSE119 (Table 7 No. 27)
  MIC: 1 µg/mL (≈ 2.96 µM)
S. epidermidis MSSE; Staphylococcus epidermidis, strain S. ep MSSE137 (Table 8 No. 4)
  MIC: 2 µg/mL (≈ 5.93 µM)
S. epidermidis MSSE; Staphylococcus epidermidis, strain S. ep MSSE140 (Table 8 No. 3)
  MIC: 2 µg/mL (≈ 5.93 µM)
S. epidermidis MSSE; Staphylococcus epidermidis, strain S. ep MSSE142 (Table 7 No. 26)
  MIC: 1 µg/mL (≈ 2.96 µM)
S. epidermidis MSSE; Staphylococcus epidermidis, strain S. ep MSSE153 (Table 8 No. 1)
  MIC: 1 µg/mL (≈ 2.96 µM)
E. feacium
  MIC50: 2 µg/mL (≈ 5.93 µM)
  MIC90: 4 µg/mL (≈ 11.9 µM)
E. feacium; E. feacium (5 strains), clinically isolated
  MICrange: 1 to 4 µg/mL
E. feacium; strain Efm 98 (Table 8 No. 21)
  MIC: 1 µg/mL (≈ 2.96 µM)
E. feacium; strain Efm 171 (Table 8 No. 25)
  MIC: 2 µg/mL (≈ 5.93 µM)
E. feacium; strain Efm 197 (Table 8 No. 22)
  MIC: 2 µg/mL (≈ 5.93 µM)
E. feacium; strain Efm N3 (Table 8 No. 23)
  MIC: 1 µg/mL (≈ 2.96 µM)
E. feacium; strain Efm N4 (Table 8 No. 24)
  MIC: 4 µg/mL (≈ 11.9 µM)
[2]; S. MSSA (11 strains), clinically isolated
  MICrange: 1 to 2 µg/mL
[2]; Staphylococcus aureus, MSSA, S. MSSA (11 strains), clinically isolated, read-out: MIC50
  MIC50: 2 µg/mL (≈ 5.93 µM)
[2]; Staphylococcus aureus, MSSA, S. MSSA (11 strains), clinically isolated, read-out: MIC90
  MIC90: 2 µg/mL (≈ 5.93 µM)
[2]; Staphylococcus aureus, MSSA, strain S. MSSA 123 (Table 7 No. 3)
  MIC: 2 µg/mL (≈ 5.93 µM)
[2]; Staphylococcus aureus, MSSA, strain S. MSSA 187 (Table 7 No. 7)
  MIC: 2 µg/mL (≈ 5.93 µM)
[2]; Staphylococcus aureus, MSSA, strain S. MSSA 195 (Table 7 No. 6)
  MIC: 2 µg/mL (≈ 5.93 µM)
[2]; Staphylococcus aureus, MSSA, strain S. MSSA 195 (Table 7 No. 12)
  MIC: 2 µg/mL (≈ 5.93 µM)
[2]; Staphylococcus aureus, MSSA, strain S. MSSA 201 (Table 7 No. 11)
  MIC: 2 µg/mL (≈ 5.93 µM)
[2]; Staphylococcus aureus, MSSA, strain S. MSSA 232 (Table 7 No. 2)
  MIC: 2 µg/mL (≈ 5.93 µM)
[2]; Staphylococcus aureus, MSSA, strain S. MSSA 275 (Table 7 No. 10)
  MIC: 2 µg/mL (≈ 5.93 µM)
[2]; Staphylococcus aureus, MSSA, strain S. MSSA 466 (Table 7 No. 8)
  MIC: 1 µg/mL (≈ 2.96 µM)
[2]; Staphylococcus aureus, MSSA, strain S. MSSA 519 (Table 7 No. 9)
  MIC: 2 µg/mL (≈ 5.93 µM)
[2]; Staphylococcus aureus, MSSA, strain S. MSSA 520 (Table 7 No. 4)
  MIC: 2 µg/mL (≈ 5.93 µM)
[2]; Staphylococcus aureus, MSSA, strain S. MSSA 580 (Table 7 No. 5)
  MIC: 2 µg/mL (≈ 5.93 µM)
Staphylococcus aureus
  MIC: 2 µg/mL (≈ 5.93 µM)
